Our source for the Ki values is patent publication US20110166121A1 (LG LIFE SCIENCES LTD., priority 2008, published 2011).

For this assay, the system named is Human platelet aggregation caused by ADP. In words: Inhibition of ADP-induced platelet aggregation (Mimic-human PRP). Type of assay: cell-based. The conditions noted are these: 20 μM ADP, human platelet concentrate diluted with PPP, absorption at 595 nm. As for the experimental part:
Platelet Preparation for Aggregation Studies
Human platelet aggregation reaction test is a functional experiment method to verify whether a test compound is an agonist or an antagonist to ADP receptor. […] The platelet product isolated from whole blood was purchased from Chung-Nam blood center (Dae-joen, South Korea). The platelet was isolated from 400 mL of whole blood containing 56 mL of CPDA-1 anticoagulant. To isolate the platelet product, 400 mL of whole blood was centrifuged at 260×g for 5 minutes, and then obtained PRP (platelet rich plasma) was secondary centrifuged at 370×g for 6 minutes. Platelet pellet (10^9/mL) was suspended with 45 mL of plasma and then agitated over 1 hour at 22° C. blood reservoir to stabilize it. The stabilized platelet product was used in the experiment within 24 hours. PCs (Platelet Concentrates) were gently transferred to a new 50 ml-falcon tube. The number of platelet was counted by using animal blood counter (ABC Vet, ABX diagnostics, France). The volume of 30 mL of PCs collected from same donor was centrifuged at 1500 g for 10 min at room temperature to prepare platelet-poor plasma (PPP). The platelet count was adjusted to platelet number of 3˜4×10^8/mL by diluting with PPP.
Evaluation on Inhibitory Effect of ADP-Induced Aggregation
Inhibition of ADP-induced aggregation was determined in 96-well flat-bottom plates (Costar, USA) at room temperature. The diluted platelet was aliquoted into each well of 96 well plate in the volume of 188 μl. […] The platelet including test compounds was immediately mixed on a shaker at 1050 rpm for 1 min and incubated at room temperature for 20 min. Then, 10 μL volume of 400 μM ADP was added: the final concentration of 20 μM ADP in the total reaction volume of 0.2 mL/well. After shaking of the plate at room temperature for 3 min, the absorption of the samples was determined at 595 nm using a microtiter plate reader (Softmax, Molecular Devices).
A dose-dependent curve on serial dilutions of ADP was accomplished by adding vehicle (DMSO) instead of antagonists in order to calculate EC50 of ADP. Inhibition of aggregation was calculated from the increase of absorption at 595 nm at 3 min of the reaction incubation, compared to results of absorption between the 0 and 20 μM ADP control without antagonists. Sigmoidal dose-response curves and Ki were derived by non-linear regression analysis using the Prism software (GraphPad, San Diego Calif.).

Where a name gives a salt, the structure may show the parent alone.

One may read the Ki as a measure of affinity in units of concentration, obtained from inhibition or displacement. Low readings indicate higher affinity, high ones lower affinity. Turning to `CCCc1cc2c(N3CCn4c(nnc4C(F)(F)F)C3)nc(OCCNC(=O)CO)nc2s1` [Example 3-60, 2-Hydroxy-N-{2-[6-propyl-4-(3-trifluoromethyl-5,6-dihydro-8H-[1,2,4]triazolo[4,3-a]pyrazin-7-yl)-thieno[2,3-d]pyrimidin-2-yloxy]-ethyl}-acetamide], the affinity, expressed as Ki, was 0.7 nM.

`CCCc1cc2c(N3CCn4c(nnc4C(F)(F)F)C3)nc(OCCNC(=O)C(F)(F)F)nc2s1` [Example 3-61, 2,2,2-Trifluoro-N-{2-[6-propyl-4-(3-trifluoromethyl-5,6-dihydro-8H-[1,2,4]triazolo[4,3-a]pyrazin-7-yl)-thieno[2,3-d]pyrimidin-2-yloxy]-ethyl}-acetamide] registered a Ki of 5.4 nM.

`CCCc1cc2c(N3CCn4c(nnc4C(F)(F)F)C3)nc(OCCN3CCCC3=O)nc2s1` [Example 3-62, 1-{2-[6-Propyl-4-(3-trifluoromethyl-5,6-dihydro-8H-[1,2,4]triazolo[4,3-a]pyrazin-7-yl)-thieno[2,3-d]pyrimidin-2-yloxy]-ethyl}-pyrrolidin-2-one] returned a Ki of 1.9 nM.

Molecule `CCCc1cc2c(N3CCn4c(nnc4C(F)(F)F)C3)nc(-c3nc(C(=O)O)cs3)nc2s1` [Example 4-46, 2-[6-Propyl-4-(3-trifluoromethyl-5,6-dihydro-8H-[1,2,4]triazolo[4,3-a]pyrazin-7-yl)thieno[2,3-d]pyrimidin-2-yl]thiazole-4-carboxylic acid] showed a Ki of 25 nM.

Molecule `CCCC(=O)N[C@H]1CCN(c2nc(N3CCn4c(nnc4C(F)(F)F)C3)c3cc(CCC)sc3n2)C1` [Example 7-1, Hydrochloric acid salt of N-{(S)-1-[6-Propyl-4-(3-trifluoromethyl-5,6-dihydro-8H-[1,2,4]triazolo[4,3-a]pyrazin-7-yl)-thieno[2,3-d]pyrimidin-2-yl]-pyrrolidin-3-yl}-butyramide] had a Ki of 11 nM.

On to `CCCc1cc2c(N3CCn4c(nnc4C(F)(F)F)C3)nc(N3CC[C@H](NC(=O)C(C)C)C3)nc2s1` [Example 7-2, Hydrochloric acid salt of N-{(S)-1-[6-Propyl-4-(3-trifluoromethyl-5,6-dihydro-8H-[1,2,4]triazolo[4,3-a]pyrazin-7-yl)-thieno[2,3-d]pyrimidin-2-yl]-pyrrolidin-3-yl}-isobutyramide], for which the Ki was 79 nM.

The molecule `CCCc1cc2c(N3CCn4c(nnc4C(F)(F)F)C3)nc(N3CC[C@@H](NC(C)=O)C3)nc2s1` [Example 7-3, Hydrochloric acid salt of N-{(R)-1-[6-Propyl-4-(3-trifluoromethyl-5,6-dihydro-8H-[1,2,4]triazolo[4,3-a]pyrazin-7-yl)-thieno[2,3-d]pyrimidin-2-yl]-pyrrolidin-3-yl}-acetamide] came in with a Ki of 26 nM.

In turn, `CCCC(=O)N[C@@H]1CCN(c2nc(N3CCn4c(nnc4C(F)(F)F)C3)c3cc(CCC)sc3n2)C1` [Example 7-4, Hydrochloric acid salt of N-{(R)-1-[6-Propyl-4-(3-trifluoromethyl-5,6-dihydro-8H-[1,2,4]triazolo[4,3-a]pyrazin-7-yl)-thieno[2,3-d]pyrimidin-2-yl]-pyrrolidin-3-yl}-butyramide] had a Ki of 75 nM.

`CCCc1cc2c(N3CCn4c(nnc4C(F)(F)F)C3)nc(N3CC[C@@H](NC(=O)C(C)C)C3)nc2s1` [Example 7-5, Hydrochloric acid salt of N-{(R)-1-[6-Propyl-4-(3-trifluoromethyl-5,6-dihydro-8H-[1,2,4]triazolo[4,3-a]pyrazin-7-yl)-thieno[2,3-d]pyrimidin-2-yl]-pyrrolidin-3-yl}-isobutyramide] came in with a Ki of 32 nM.

`CCCc1cc2c(N3CCn4c(nnc4C(F)(F)F)C3)nc(N3CCC[C@@H](NC(C)=O)C3)nc2s1` [Example 7-6, Hydrochloric acid salt of N-{(R)-1-[6-Propyl-4-(3-trifluoromethyl-5,6-dihydro-8H-[1,2,4]triazolo[4,3-a]pyrazin-7-yl)-thieno[2,3-d]pyrimidin-2-yl]-piperidin-3-yl}-acetamide] came in with a Ki of 18 nM.

`CCCC(=O)N[C@@H]1CCCN(c2nc(N3CCn4c(nnc4C(F)(F)F)C3)c3cc(CCC)sc3n2)C1` [Example 7-7, Hydrochloric acid salt of N-{(R)-1-[6-Propyl-4-(3-trifluoromethyl-5,6-dihydro-8H-[1,2,4]triazolo[4,3-a]pyrazin-7-yl)-thieno[2,3-d]pyrimidin-2-yl]-piperidin-3-yl}-butyramide] showed a Ki of 63 nM.

Turning to `CCCc1cc2c(N3CCn4c(nnc4C(F)(F)F)C3)nc(N3CCC[C@@H](NC(=O)C(C)C)C3)nc2s1` [Example 7-8, Hydrochloric acid salt of N-{(R)-1-[6-Propyl-4-(3-trifluoromethyl-5,6-dihydro-8H-[1,2,4]triazolo[4,3-a]pyrazin-7-yl)-thieno[2,3-d]pyrimidin-2-yl]-piperidin-3-yl}-isobutyramide], the Ki was 150 nM.

With `CCCc1cc2c(N3CCn4c(nnc4C(F)(F)F)C3)nc(N3CCC[C@H](NC(C)=O)C3)nc2s1` [Example 7-9, Hydrochloric acid salt of N-{(S)-1-[6-Propyl-4-(3-trifluoromethyl-5,6-dihydro-8H-[1,2,4]triazolo[4,3-a]pyrazin-7-yl)-thieno[2,3-d]pyrimidin-2-yl]-piperidin-3-yl}-acetamide], the Ki was 590 nM.

On to `CCCC(=O)N[C@H]1CCCN(c2nc(N3CCn4c(nnc4C(F)(F)F)C3)c3cc(CCC)sc3n2)C1` [Example 7-10, Hydrochloric acid salt of N-{(S)-1-[6-Propyl-4-(3-trifluoromethyl-5,6-dihydro-8H-[1,2,4]triazolo[4,3-a]pyrazin-7-yl)-thieno[2,3-d]pyrimidin-2-yl]-piperidin-3-yl}-butyramide], for which affinity was put at a Ki of 980 nM.

On to `CCCc1cc2c(N3CCn4c(nnc4C(F)(F)F)C3)nc(N3CCC[C@H](NC(=O)C(C)C)C3)nc2s1` [Example 7-11, Hydrochloric acid salt of N-{(S)-1-[6-Propyl-4-(3-trifluoromethyl-5,6-dihydro-8H-[1,2,4]triazolo[4,3-a]pyrazin-7-yl)-thieno[2,3-d]pyrimidin-2-yl]-piperidin-3-yl}-isobutyramide], for which the Ki stood at 280 nM.

Molecule `CCCc1cc2c(N3CCn4c(nnc4C(F)(F)F)C3)nc(N3CCC(NC(C)=O)CC3)nc2s1` [Example 7-12, Hydrochloric acid salt of N-{1-[6-Propyl-4-(3-trifluoromethyl-5,6-dihydro-8H-[1,2,4]triazolo[4,3-a]pyrazin-7-yl)-thieno[2,3-d]pyrimidin-2-yl]-piperidin-4-yl}-acetamide] gave a Ki of 35 nM.

Consider `CCCC(=O)NC1CCN(c2nc(N3CCn4c(nnc4C(F)(F)F)C3)c3cc(CCC)sc3n2)CC1` [Example 7-13, Hydrochloric acid salt of N-{1-[6-Propyl-4-(3-trifluoromethyl-5,6-dihydro-8H-[1,2,4]triazolo[4,3-a]pyrazin-7-yl)-thieno[2,3-d]pyrimidin-2-yl]-piperidin-4-yl}-butyramide], for which affinity was put at a Ki of 76 nM.

For `CCCc1cc2c(N3CCn4c(nnc4C(F)(F)F)C3)nc(N3CCC(NC(=O)C(C)C)CC3)nc2s1` [Example 7-14, Hydrochloric acid salt of N-{1-[6-Propyl-4-(3-trifluoromethyl-5,6-dihydro-8H-[1,2,4]triazolo[4,3-a]pyrazin-7-yl)-thieno[2,3-d]pyrimidin-2-yl]-piperidin-4-yl}-isobutyramide], affinity was put at a Ki of 120 nM.

`CCCC(=O)N1CCN(c2nc(N3CCn4c(nnc4C(F)(F)F)C3)c3cc(CCC)sc3n2)CC1` [Example 7-15, Hydrochloric acid salt of 1-{4-[6-Propyl-4-(3-trifluoromethyl-5,6-dihydro-8H-[1,2,4]triazolo[4,3-a]pyrazin-7-yl)-thieno[2,3-d]pyrimidin-2-yl]-piperazin-1-yl}-butan-1-one] displayed a Ki of 600 nM.

For `CCCc1cc2c(N3CCn4c(nnc4C(F)(F)F)C3)nc(N3CCN(C(=O)C(C)C)CC3)nc2s1` [Example 7-16, Hydrochloric acid salt of 2-Methyl-1-{4-[6-propyl-4-(3-trifluoromethyl-5,6-dihydro-8H-[1,2,4]triazolo[4,3-a]pyrazin-7-yl)-thieno[2,3-d]pyrimidin-2-yl]-piperazin-1-yl}-propan-1-one], the Ki was determined as 590 nM.

The molecule `CCCc1cc2c(N3CCn4c(nnc4C(F)(F)F)C3)nc(N3CC(O)C(NC(C)=O)C3)nc2s1` (stereo not drawn) [Example 7-17, N-{4-Hydroxy-1-[6-propyl-4-(3-trifluoromethyl-5,6-dihydro-8H-[1,2,4]triazolo[4,3-a]pyrazin-7-yl)-thieno[2,3-d]pyrimidin-2-yl]-pyrrolidin-3-yl}-acetamide] came in with a Ki of 2.8 nM.
